Data reported in ChEMBL document CHEMBL3774308, “KATching-Up on Small Molecule Modulators of Lysine Acetyltransferases” (J Med Chem, 2016).

Tests used:
CREB-binding protein = CREB-binding protein (Homo sapiens, UniProt Q92793); assay: Inhibition of human CREBBP expressed in competent escherichia coli BL21(DE3)-R3-pRARE2 cells by isothermal titration calorimetry
[1] = biological target: Histone acetyltransferase p300 (Homo sapiens, UniProt Q09472); assay: Inhibition of human p300 expressed in competent escherichia coli BL21(DE3)-R3-pRARE2 cells by isothermal titration calorimetry
Histone acetyltransferase p300, sequence (Q09472 whole entry): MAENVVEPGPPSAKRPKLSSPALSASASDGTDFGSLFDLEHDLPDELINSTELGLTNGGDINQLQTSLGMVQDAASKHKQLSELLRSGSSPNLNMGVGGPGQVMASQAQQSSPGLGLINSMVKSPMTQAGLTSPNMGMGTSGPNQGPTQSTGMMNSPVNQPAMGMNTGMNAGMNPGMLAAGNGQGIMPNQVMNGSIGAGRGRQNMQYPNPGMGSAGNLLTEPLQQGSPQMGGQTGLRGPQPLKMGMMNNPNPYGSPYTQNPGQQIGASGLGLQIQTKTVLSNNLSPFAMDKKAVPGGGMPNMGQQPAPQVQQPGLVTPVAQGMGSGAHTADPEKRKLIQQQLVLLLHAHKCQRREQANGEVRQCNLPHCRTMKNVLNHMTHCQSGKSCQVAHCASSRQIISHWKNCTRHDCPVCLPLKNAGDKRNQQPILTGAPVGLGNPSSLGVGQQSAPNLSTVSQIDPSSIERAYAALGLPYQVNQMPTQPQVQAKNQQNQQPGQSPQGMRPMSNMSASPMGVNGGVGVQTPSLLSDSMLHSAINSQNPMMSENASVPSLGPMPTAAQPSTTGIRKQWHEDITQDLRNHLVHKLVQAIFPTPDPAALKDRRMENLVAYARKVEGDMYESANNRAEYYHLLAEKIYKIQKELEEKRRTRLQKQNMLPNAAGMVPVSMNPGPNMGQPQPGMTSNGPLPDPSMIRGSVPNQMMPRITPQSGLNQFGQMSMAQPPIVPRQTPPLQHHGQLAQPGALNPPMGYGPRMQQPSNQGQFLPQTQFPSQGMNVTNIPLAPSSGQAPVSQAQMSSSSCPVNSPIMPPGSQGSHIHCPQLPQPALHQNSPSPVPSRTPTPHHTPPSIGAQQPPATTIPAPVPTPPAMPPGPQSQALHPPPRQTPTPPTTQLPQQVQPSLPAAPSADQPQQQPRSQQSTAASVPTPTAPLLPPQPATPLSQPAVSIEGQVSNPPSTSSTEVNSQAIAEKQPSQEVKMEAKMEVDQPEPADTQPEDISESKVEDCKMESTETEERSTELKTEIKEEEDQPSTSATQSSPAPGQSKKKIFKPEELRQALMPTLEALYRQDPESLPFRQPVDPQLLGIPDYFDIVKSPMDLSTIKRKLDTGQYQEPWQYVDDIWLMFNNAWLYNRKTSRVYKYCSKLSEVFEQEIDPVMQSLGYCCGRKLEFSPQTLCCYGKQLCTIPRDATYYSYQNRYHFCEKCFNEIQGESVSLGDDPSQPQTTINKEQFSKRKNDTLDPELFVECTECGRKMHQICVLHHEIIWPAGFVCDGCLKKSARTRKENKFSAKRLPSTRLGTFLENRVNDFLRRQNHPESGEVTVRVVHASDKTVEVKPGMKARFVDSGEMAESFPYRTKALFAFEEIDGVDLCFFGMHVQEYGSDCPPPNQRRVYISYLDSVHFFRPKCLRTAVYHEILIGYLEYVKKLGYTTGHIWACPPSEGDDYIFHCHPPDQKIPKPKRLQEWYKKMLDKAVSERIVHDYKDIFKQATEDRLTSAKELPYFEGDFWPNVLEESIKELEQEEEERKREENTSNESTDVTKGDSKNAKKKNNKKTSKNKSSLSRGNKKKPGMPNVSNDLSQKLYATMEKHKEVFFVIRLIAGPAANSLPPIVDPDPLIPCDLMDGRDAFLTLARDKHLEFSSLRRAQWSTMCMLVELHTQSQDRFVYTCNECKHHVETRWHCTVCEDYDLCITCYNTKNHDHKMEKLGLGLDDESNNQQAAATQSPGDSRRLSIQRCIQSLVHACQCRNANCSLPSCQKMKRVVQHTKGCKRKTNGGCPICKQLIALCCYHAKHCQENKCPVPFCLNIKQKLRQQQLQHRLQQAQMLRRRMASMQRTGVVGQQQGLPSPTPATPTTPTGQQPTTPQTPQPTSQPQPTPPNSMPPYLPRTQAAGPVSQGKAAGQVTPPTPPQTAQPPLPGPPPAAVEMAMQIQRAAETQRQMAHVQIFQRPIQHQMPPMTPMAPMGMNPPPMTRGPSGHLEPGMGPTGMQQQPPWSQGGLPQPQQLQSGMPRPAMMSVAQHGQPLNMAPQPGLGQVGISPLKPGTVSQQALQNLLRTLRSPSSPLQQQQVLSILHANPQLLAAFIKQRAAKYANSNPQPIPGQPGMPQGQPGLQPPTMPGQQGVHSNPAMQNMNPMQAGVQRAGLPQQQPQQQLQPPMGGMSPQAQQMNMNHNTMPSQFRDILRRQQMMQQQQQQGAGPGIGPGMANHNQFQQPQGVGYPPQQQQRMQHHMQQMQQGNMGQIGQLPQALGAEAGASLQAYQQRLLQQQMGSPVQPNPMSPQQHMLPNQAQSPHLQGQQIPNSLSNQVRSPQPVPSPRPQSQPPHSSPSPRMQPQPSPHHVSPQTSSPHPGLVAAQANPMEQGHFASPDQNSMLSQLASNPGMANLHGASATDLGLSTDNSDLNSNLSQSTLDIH

CREB-binding protein, sequence (Q92793 whole entry): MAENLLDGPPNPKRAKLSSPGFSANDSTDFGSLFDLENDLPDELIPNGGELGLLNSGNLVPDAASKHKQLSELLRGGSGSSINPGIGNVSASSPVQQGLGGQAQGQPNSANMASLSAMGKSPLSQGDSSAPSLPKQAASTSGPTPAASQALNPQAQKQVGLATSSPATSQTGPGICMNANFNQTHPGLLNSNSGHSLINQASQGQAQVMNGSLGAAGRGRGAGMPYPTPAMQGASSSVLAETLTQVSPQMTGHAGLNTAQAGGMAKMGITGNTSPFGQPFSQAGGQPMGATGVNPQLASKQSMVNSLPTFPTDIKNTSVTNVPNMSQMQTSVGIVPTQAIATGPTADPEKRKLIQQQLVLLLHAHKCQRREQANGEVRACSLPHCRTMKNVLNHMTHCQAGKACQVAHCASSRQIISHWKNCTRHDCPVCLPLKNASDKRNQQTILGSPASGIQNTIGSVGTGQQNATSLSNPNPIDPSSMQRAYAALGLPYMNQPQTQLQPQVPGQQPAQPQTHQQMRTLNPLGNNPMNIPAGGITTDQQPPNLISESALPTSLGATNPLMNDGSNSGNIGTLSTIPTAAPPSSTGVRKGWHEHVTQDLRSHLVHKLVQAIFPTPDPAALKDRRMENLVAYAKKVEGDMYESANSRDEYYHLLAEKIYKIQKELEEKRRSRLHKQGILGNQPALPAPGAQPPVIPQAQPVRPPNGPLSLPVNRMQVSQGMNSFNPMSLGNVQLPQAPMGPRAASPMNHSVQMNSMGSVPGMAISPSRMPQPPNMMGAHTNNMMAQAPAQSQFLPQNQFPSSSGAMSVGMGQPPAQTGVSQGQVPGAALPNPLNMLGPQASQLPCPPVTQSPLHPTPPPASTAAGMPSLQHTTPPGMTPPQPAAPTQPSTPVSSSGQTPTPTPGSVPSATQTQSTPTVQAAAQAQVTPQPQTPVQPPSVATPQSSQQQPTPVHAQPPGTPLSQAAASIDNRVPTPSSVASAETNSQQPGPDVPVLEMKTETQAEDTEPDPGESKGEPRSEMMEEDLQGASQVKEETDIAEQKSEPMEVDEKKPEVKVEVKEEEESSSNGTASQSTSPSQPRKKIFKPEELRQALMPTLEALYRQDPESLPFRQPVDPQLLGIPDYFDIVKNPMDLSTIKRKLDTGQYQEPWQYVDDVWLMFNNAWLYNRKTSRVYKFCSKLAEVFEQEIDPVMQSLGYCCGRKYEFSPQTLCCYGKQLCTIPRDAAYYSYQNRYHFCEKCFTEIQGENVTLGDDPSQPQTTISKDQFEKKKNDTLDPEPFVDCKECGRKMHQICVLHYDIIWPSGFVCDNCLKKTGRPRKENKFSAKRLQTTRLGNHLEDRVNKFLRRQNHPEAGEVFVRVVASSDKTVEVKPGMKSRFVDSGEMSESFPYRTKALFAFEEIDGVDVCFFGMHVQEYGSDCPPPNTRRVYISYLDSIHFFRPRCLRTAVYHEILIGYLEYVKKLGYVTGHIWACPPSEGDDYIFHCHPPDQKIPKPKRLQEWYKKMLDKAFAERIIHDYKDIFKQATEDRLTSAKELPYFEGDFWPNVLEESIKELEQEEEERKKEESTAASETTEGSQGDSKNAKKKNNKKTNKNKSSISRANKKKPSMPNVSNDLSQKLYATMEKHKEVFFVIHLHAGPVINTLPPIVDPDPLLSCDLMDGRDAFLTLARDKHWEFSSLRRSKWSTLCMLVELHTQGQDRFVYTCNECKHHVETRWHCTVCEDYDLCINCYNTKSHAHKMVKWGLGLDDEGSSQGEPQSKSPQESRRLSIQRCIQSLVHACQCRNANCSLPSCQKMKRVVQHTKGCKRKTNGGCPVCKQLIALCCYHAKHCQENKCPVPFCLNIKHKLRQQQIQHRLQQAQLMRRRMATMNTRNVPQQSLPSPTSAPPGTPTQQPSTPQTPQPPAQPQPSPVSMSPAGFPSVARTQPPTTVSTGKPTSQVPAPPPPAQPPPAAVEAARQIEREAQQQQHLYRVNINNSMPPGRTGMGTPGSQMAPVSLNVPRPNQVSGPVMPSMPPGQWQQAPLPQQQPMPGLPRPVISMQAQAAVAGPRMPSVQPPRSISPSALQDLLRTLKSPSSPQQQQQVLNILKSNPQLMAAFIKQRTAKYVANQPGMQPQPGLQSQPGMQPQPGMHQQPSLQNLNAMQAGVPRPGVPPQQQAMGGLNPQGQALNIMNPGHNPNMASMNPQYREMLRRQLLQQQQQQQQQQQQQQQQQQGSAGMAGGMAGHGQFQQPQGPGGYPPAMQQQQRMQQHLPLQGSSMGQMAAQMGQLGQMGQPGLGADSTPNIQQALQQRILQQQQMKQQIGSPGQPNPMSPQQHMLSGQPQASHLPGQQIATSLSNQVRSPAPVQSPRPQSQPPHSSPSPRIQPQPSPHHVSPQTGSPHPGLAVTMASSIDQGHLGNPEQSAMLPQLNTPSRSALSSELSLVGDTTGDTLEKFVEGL

`CCC(=O)N1CCOc2c(cc(-c3ccc(OC)c(OC)c3)cc2OC[C@H]2CCCN(C)C2)C1` was tested, and the Kd (CREB-binding protein) was 0.151 µM and the Kd [1] was 0.167 µM.
